pIC50: −log10 of the molar value. Calls of active or inactive are those of the source. No cut-off for these calls is given here.
Columns and labels:
[1] = tested on: MDA-MB-231; assay: Cytotoxicity against human MDA-MB-231 cells assessed as induction of cell death at 0.5 to 25 uM after 48 hrs by MTT assay; type: functional, cell-based
[2] = tested on: MCF7; assay: Cytotoxicity against human MCF7 cells assessed as induction of cell death at 0.5 to 25 uM after 48 hrs by MTT assay; type: functional, cell-based
[3] = tested on: MCF7; assay: Ratio of tamoxifen IC50 to compound IC50 for human MCF7 cells assessed as reduction in cell viability after 96 hrs by MTT assay; type: functional
[4] = tested on: MCF7; assay: Cytotoxicity against human MCF7 cells assessed as reduction in cell viability after 96 hrs by MTT assay; type: functional, cell-based; details: MCF7, 96 h
[5] = tested on: MDA-MB-231; assay: Cytotoxicity against human MDA-MB-231 cells assessed as reduction in cell viability after 48 hrs by MTT assay; type: functional, cell-based; details: MDA-MB-231, 48 h
[6] = tested on: MDA-MB-231; assay: Induction of cell death in human MDA-MB-231 cells at 10 uM after 24 hrs using calcein AM and ethidium homodimer-1 by live/dead assay; type: functional
[7] = tested on: MCF7; assay: Induction of cell death in human MCF7 cells at 10 uM after 24 hrs using calcein AM and ethidium homodimer-1 by live/dead assay; type: functional
[8] = tested on: MDA-MB-231; assay: Ratio of ospemifene IC50 to compound IC50 for human MDA-MB-231 cells assessed as reduction in cell viability after 96 hrs by MTT assay; type: functional
[9] = tested on: MDA-MB-231; assay: Cytotoxicity against human MDA-MB-231 cells assessed as reduction in cell viability after 96 hrs by MTT assay; type: functional, cell-based; details: MDA-MB-231, 96 h
[10] = tested on: MCF7; assay: Ratio of ospemifene IC50 to compound IC50 for human MCF7 cells assessed as reduction in cell viability after 96 hrs by MTT assay; type: functional
[11] = tested on: MCF7; assay: Cytotoxicity against human MCF7 cells assessed as reduction in cell viability after 48 hrs by MTT assay; type: functional, cell-based; details: MCF7, 48 h
[12] = tested on: MEF; assay: Cytotoxicity against MEFs assessed as reduction in cell viability up to 100 uM after 48 to 96 hrs by MTT assay; type: cell-based; details: mouse
[13] = tested on: MDA-MB-231; assay: Ratio of tamoxifen IC50 to compound IC50 for human MDA-MB-231 cells assessed as reduction in cell viability after 96 hrs by MTT assay; type: functional
[14] = tested on: MDA-MB-231; assay: Induction of cell death in human MDA-MB-231 cells at 10 to 50 uM after 24 hrs using calcein AM and ethidium homodimer-1 by live/dead assay; type: functional, cell-based
[15] = tested on: MCF7; assay: Induction of cell death in human MCF7 cells at 10 to 50 uM after 24 hrs using calcein AM and ethidium homodimer-1 by live/dead assay; type: functional

[N-]=[N+]=NCCOc1ccc(/C(=C(/CCCl)c2ccccc2)c2ccccc2)cc1
Activity [1]: inactive
Activity [2]: inactive

CS(=O)(=O)OCCOc1ccc(/C(=C(/CCCl)c2ccccc2)c2ccccc2)cc1
Activity [1]: inactive
Activity [2]: inactive

NCCOc1ccc(/C(=C(/CCN)c2ccccc2)c2ccccc2)cc1
Activity [1]: Active
Ratio IC50 [3]: >5
pIC50 [4]: 4.95
Activity [2]: Active
pIC50 [5]: 4.77
Activity [6]: 70%
Activity [7]: 70%
Ratio IC50 [8]: 5
pIC50 [9]: 4.87
Ratio IC50 [10]: 5
pIC50 [11]: 4.63
Activity [12]: Non-toxic
Ratio IC50 [13]: >5
Activity [14]: Active
Activity [15]: Active

O=C(NCC/C(=C(\c1ccccc1)c1ccc(OCCO)cc1)c1ccccc1)Oc1ccccc1
Activity [1]: Active
pIC50 [4]: 4.30
Activity [2]: Active
pIC50 [5]: < 4.00
pIC50 [9]: 4.21
pIC50 [11]: 4.12

CC/C(=C(\c1ccccc1)c1ccc(OCCN(C)C)cc1)c1ccccc1 [TAMOXIFEN]
Activity [12]: Non-toxic

NCC/C(=C(\c1ccccc1)c1ccc(OCCO)cc1)c1ccccc1
Activity [1]: Active
Ratio IC50 [3]: >5
pIC50 [4]: 4.91
Activity [2]: Active
pIC50 [5]: 4.60
Ratio IC50 [8]: 5
pIC50 [9]: 4.84
Ratio IC50 [10]: 5
pIC50 [11]: 4.80
Activity [12]: Non-toxic
Ratio IC50 [13]: >5
Activity [14]: Active
Activity [15]: 50%

OCCOc1ccc(/C(=C(/CCCl)c2ccccc2)c2ccccc2)cc1 [OSPEMIFENE]
pIC50 [4]: 4.26
pIC50 [5]: < 4.00
pIC50 [9]: < 4.00
pIC50 [11]: < 4.00
Activity [12]: Non-toxic

[N-]=[N+]=NCC/C(=C(\c1ccccc1)c1ccc(OCCO)cc1)c1ccccc1
pIC50 [4]: < 4.00
Activity [2]: Active
pIC50 [5]: < 4.00
pIC50 [9]: < 4.00
pIC50 [11]: < 4.00

[N-]=[N+]=NCCOc1ccc(/C(=C(/CCN=[N+]=[N-])c2ccccc2)c2ccccc2)cc1
Activity [1]: inactive
Activity [2]: inactive

From ChEMBL document CHEMBL3351602 (Eur J Med Chem, 2014)
